Source: patent US7462615B2, “Inhibitors of cysteine proteases, the pharmaceutical compositions thereof and their therapeutic applications” (Hybrigenics SA, priority 2005, dated 2008)
pIC50: −log10 of the molar value.

Biological target: T1, USP8 (Homo sapiens, UniProt P40818)
T1 construct: His tag (from vector pFastBac-HT) (N); made in house; host or cells: Sf9 or High Five insect cells (baculovirus)
T1 sequence (P40818 1-1118): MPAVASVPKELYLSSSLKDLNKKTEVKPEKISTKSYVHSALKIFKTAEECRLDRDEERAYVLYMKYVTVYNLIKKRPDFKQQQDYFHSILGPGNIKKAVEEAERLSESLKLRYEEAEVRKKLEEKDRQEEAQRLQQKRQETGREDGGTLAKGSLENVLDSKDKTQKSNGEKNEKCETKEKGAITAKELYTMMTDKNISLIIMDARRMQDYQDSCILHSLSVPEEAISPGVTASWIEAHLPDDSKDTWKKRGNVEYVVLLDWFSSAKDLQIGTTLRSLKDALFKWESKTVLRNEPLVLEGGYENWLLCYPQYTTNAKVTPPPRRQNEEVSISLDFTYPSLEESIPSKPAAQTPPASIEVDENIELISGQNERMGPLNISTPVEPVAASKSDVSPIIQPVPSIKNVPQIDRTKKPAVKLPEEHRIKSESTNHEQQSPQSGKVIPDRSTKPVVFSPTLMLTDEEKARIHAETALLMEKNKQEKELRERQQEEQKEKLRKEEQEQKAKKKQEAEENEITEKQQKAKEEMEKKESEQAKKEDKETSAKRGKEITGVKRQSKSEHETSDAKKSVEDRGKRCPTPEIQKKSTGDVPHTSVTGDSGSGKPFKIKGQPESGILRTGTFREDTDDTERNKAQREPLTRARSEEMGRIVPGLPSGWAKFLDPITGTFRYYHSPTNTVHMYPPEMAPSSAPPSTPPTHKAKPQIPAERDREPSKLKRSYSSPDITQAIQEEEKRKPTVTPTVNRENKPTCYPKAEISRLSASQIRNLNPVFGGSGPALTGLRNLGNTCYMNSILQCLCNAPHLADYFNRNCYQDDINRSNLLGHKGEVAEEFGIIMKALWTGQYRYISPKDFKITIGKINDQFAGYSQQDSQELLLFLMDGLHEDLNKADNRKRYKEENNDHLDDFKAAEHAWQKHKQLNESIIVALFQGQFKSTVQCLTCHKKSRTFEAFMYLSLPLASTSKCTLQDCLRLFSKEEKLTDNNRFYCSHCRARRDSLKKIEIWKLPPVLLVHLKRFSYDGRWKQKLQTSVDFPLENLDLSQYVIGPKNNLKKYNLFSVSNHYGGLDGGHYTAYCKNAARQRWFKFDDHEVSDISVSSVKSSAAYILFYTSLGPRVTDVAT
Assay: USP8 Activity Assay
Format: biochemical
Settings: 400 nM Ub-AMC; 630 pM enzyme; pH8.8; pre-incubated 30 minutes at 25° C., 60 minutes at 37° C.; sigmoidal fit; read-out: USP 8 (Inhibition of cysteine protease activities)
Source text: The cDNA encoding USP8 was obtained by PCR amplification from placenta mRNA. USP8 cDNA was subcloned by PCR into a baculovirus expression vector (pFastBac-HT; Invitrogen). A cDNA encoding a mutated USP8 was generated by mutagenic PCR. The corresponding protein encodes a cysteine to alanine substitution at residue 786. The sequences were ascertained by sequencing of the entire open reading frame. Bacmids encoding USP7 were generated following DH10bac transposition. The corresponding bacmids were transfected into insect cells (Sf9). Viruses were recovered from culture supernatant and amplified twice. Insect cells (Sf9 or High Five; Invitrogen) were infected for 72 hours. Total cell lysates were harvested and lyzed in lysis buffer (Tris HCl 50 mM pH7.6; 0.75% NP40; 500 mM NaCl; 10% glycerol; 1 mM DTT; 10 mM imidazole; Protease Inhibitor Cocktail; AEBSF 20 μg.ml^−1; Aprotinin 10 μg.ml^−1). Proteins were affinity purified on metal affinity resins (Talon Metal affinity resin; BD Biosciences). Bound materials were extensively washed in wash buffer (50 mM Sodium Phosphate pH 7.0; 300 mM NaCl; 10 mM imidazole; 0.5% Triton X-100; 10% glycerol) and eluted from the resin in 250 mM imidazole-containing wash buffer. Proteins were dialyzed in dialysis buffer (Tris HCl pH 7.6 20 mM; NaCl 200 mM; DTT 1 mM; EDTA 1 mM; 10% Glycerol). Proteins purifications were analyzed on 4-12% NuPAGE (Invitrogen).
USP8 was diluted in USP buffer (50 mM Tris HCl; 0.5 mM EDTA; 5 mM DTT; 0.01% Triton X-100; Bovine Serum Albumin 0.05 mg.ml^−1 pH8.8). Compounds stocks (100 mM) were stored at −20° C. in DMSO.
Reactions were performed as duplicates in Black LJL 96 well plates (HE microplates; Molecular Devices; 20 μl final reaction volume). The substrate concentration for USP8 was 400 nM Ub-AMC (Boston Biochem). The concentrations of the enzyme (USP8) in specificity assays was 630 pM. The concentrations were determined in order to perform specificity assays under initial velocities at fixed substrate concentration. Compounds were pre-incubated with enzymes for 30 minutes at 25° C. Reactions were initiated by addition of substrate to the plates containing the enzymes (+/−compounds) diluted in assay buffer. Reactions were incubated for 60 minutes at 37° C. Reactions were stopped by adding acetic acid (100 mM final). Readings were performed on a Pherastar Fluorescent Reader (BMG). λ Emission 380 nm; λ Excitation=460 nm. Data (mean values +/− standard deviation) were analyzed as % of control (no compound) and plotted as percentage versus the Log of the compound concentration using GraphPad (Prism). Data were fitted to a sigmoidal model (variable slope).

Molecule | pIC50
6-(7)-Chloro-1-methyl-2,3,4,10,10a-pentaaza-cyclopenta[b]fluoren-9-one [Example 3/A] | 6.52
Cc1nnc2nc3c(nn12)C(=O)c1ccccc1-3 [Example 1b/A, 1-Methyl-2,3,4,10,10a-pentaaza-cyclopenta[b]fluoren-9-one] | 6.15
Nc1nnc2nc3c(nn12)C(=O)c1ccccc1-3 [Example 1c/A, 1-Amino-2,3,4,10,10a-pentaaza-cyclopenta[b]fluoren-9-one] | 6.08
Nc1nnc2nc3c(nn12)-c1ccccc1C3=O [Example 1c/B, 3-Amino-1,2,3a,4,10-pentaaza-cyclopenta[b]fluoren-9-one] | 7.09
CCc1nnc2nc3c(nn12)C(=O)c1ccccc1-3 [Example 1d/A, 1-Ethyl-2,3,4,10,10a-pentaaza-cyclopenta[b]fluoren-9-one] | 6.27
CCCc1nnc2nc3c(nn12)C(=O)c1ccccc1-3 [Example 1e/A, 1-Propyl-2,3,4,10,10a-pentaaza-cyclopenta[b]fluoren-9-one] | 6.02
CCCCc1nnc2nc3c(nn12)C(=O)c1ccccc1-3 [Example 1f/A, 1-Butyl-2,3,4,10,10a-pentaaza-cyclopenta[b]fluoren-9-one] | 6.08
CCCCc1nnc2nc3c(nn12)-c1ccccc1C3=O [Example 1f/B, 3-Butyl-1,2,3a,4,10-pentaaza-cyclopenta[b]fluoren-9-one] | 6.82
CC(C)Cc1nnc2nc3c(nn12)C(=O)c1ccccc1-3 [Example 1g/A, 1-Isobutyl-2,3,4,10,10a-pentaaza-cyclopenta[b]fluoren-9-one] | 6.27
CC(C)Cc1nnc2nc3c(nn12)-c1ccccc1C3=O [Example 1g/B, 3-Isobutyl-1,2,3a,4,10-pentaaza-cyclopenta[b]fluoren-9-one] | 6.78
O=C1c2ccccc2-c2nc3nnc(CO)n3nc21 [Example 1h/A, 1-Hydroxymethyl-2,3,4,10,10a-pentaaza-cyclopenta[b]fluoren-9-one] | 6.17
O=C1c2ccccc2-c2nn3c(CO)nnc3nc21 [Example 1h/B] | 6.79
O=C1c2ccccc2-c2nc3nnc(C4CC4)n3nc21 [Example 1j/A, 1-Cyclopropyl-2,3,4,10,10a-pentaaza-cyclopenta[b]fluoren-9-one] | 5.60
O=C1c2ccccc2-c2nc3nnc(Cc4ccccc4)n3nc21 [Example 1k/A, 1-Benzyl-2,3,4,10,10a-pentaaza-cyclopenta[b]fluoren-9-one] | 6.18
O=C1c2ccccc2-c2nn3c(Cc4ccccc4)nnc3nc21 [Example 1k/B, 3-Benzyl-1,2,3a,4,10-pentaaza-cyclopenta[b]fluoren-9-one] | 6.78
Cc1nnc2nc3c(nn12)-c1ccc(Cl)cc1C3=O [Example 3/B, 7-Chloro-3-methyl-1,2,3a, 4,10-pentaaza-cyclopenta[b]fluoren-9-one] | 6.92
Cn1nc2nc3c(nc2n1)-c1ccccc1C3=O [Example 4a, 2-Methyl-2H-1,2,3,4,10-pentaaza-cyclopenta[b]fluoren-9-one] | 5.00
O=C1c2ccccc2-c2nc3nn(Cc4ccccc4)nc3nc21 [Example 4b, 2-Benzyl-2H-1,2,3,4,10-pentaaza-cyclopenta[b]fluoren-9-one] | 4.82
